Patent US9771369B2, “Compounds and methods for kinase modulation, and indications therefor” (Plexxikon Inc., priority 2014, dated 2017)

Columns and labels:
[1] = target: c-kit mutant D816V (Homo sapiens (Human), UniProt P10721, D816V/DEL694-753); experiment: c-Kit mutant D816V biochemical assay (AlphaScreen kinase activity)
How it was run: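 AlphaScreen with streptavidin donor and PY30 acceptor beads read phosphotyrosine on biotin-(E4Y)10 substrate (30 nM). Enzyme: E. coli-expressed N-His c-Kit D816V, residues 551-934 lacking kinase insert 694-753. Reaction 30 min at room temperature, 10 μM ATP, 5% DMSO; IC50 fitted over 8 three-fold dilutions.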

[2] = system: BaF3-FL KIT D816V or BaF3-FL KIT V560G/D816V cell line; experiment: Cell-based assays of c-Kit mutant kinase activity (cell proliferation, ATPlite); conditions: at least one of the c-kit cell assays of Example 7
How it was run: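 BaF3 cells dependent on transfected full-length human KIT D816V or V560G/D816V (pCI-Neo, CMV promoter) were seeded at 1×10^4 cells/well and exposed to 8-point 1:3 dilutions from 10 μM top (0.2% DMSO) for three days at 37° C. ATPlite luminescence gave cell number; IC50 from concentration-response.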

Sequence of c-kit mutant D816V (P10721 other isoform, or with tags, fused parts or gaps D816V/del 694-753): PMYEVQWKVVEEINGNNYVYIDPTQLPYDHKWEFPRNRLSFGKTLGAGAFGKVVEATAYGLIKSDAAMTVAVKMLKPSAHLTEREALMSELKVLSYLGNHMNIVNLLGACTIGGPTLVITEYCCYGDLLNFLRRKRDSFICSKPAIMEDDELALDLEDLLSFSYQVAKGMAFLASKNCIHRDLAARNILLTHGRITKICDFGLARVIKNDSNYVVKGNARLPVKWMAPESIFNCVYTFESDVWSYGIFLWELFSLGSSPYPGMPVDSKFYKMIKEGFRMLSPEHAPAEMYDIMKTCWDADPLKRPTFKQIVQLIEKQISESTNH

| Compound | IC50 [1] [µM] | IC50 [2] [µM] |
| --- | --- | --- |
| CCOc1ccc(-c2[nH]c(C3(C)CCN(c4ncnc5[nH]c(-c6cnn(C(F)F)c6)cc45)CC3)nc2C)cc1C [P-3245, 6-[1-(difluoromethyl)pyrazol-4-yl]-4-[4-[5-(4-ethoxy-3-methyl-phenyl)-4-methyl-1H-imidazol-2-yl]-4-methyl-1-piperidyl]-7H-pyrrolo[2,3-d]pyrimidine] | 0.0001 to 1 | < 10 |
| CNC(=O)c1ccc(-c2cc3c(N4CCC(C)(c5nc(C)c(-c6ccc(OC(F)F)cc6)[nH]5)CC4)ncnc3[nH]2)cn1 [P-3246, 5-[4-[4-[5-[4-(difluoromethoxy)phenyl]-4-methyl-1H-imidazol-2-yl]-4-methyl-1-piperidyl]-7H-pyrrolo[2,3-d]pyrimidin-6-yl]-N-methyl-pyridine-2-carb oxamide] | 0.0001 to 1 | < 10 |
| CCOc1ccc(-c2[nH]c(C3(C)CCN(c4ncnc5[nH]c(-c6ccc(C(=O)NC)nc6)cc45)CC3)nc2C)cc1C [P-3247, 5-[4-[4-[5-(4-ethoxy-3-methyl-phenyl)-4-methyl-1H-imidazol-2-yl]-4-methyl-1-piperidyl]-7H-pyrrolo[2,3-d]pyrimidin-6-yl]-N-methyl-pyridine-2-carb oxamide] | 0.0001 to 1 | < 10 |
| Cc1nc(C2(C)CCN(c3ncnc4[nH]c(-c5ccc(N6CCOCC6)nc5)cc34)CC2)[nH]c1-c1ccc(OC(F)F)cc1 [P-3248, 4-[5-[4-[4-[5-[4-(difluoromethoxy)phenyl]-4-methyl-1H-imidazol-2-yl]-4-methyl-1-piperidyl]-7H-pyrrolo[2,3-d]pyrimidin-6-yl]-2-pyridyl]morpholine] | 0.0001 to 1 | < 10 |
| CCOc1ccc(-c2[nH]c(C3(C)CCN(c4ncnc5[nH]c(-c6ccc(N7CCOCC7)nc6)cc45)CC3)nc2C)cc1C [P-3249, 4-[5-[4-[4-[5-(4-ethoxy-3-methyl-phenyl)-4-methyl-1H-imidazol-2-yl]-4-methyl-1-piperidyl]-7H-pyrrolo[2,3-d]pyrimidin-6-yl]-2-pyridyl]morpholine] | 0.0001 to 1 | < 10 |
